Results from patent publication US9018214B2, “Bicyclic heterocycle compounds and their uses in therapy” (Astex Therapeutics Limited, priority 2011, dated 2015).
Structures can show the parent of a compound that is named as a salt. Where two headings read alike, the source gives them in different places.

Assays:
[1] = tested on: EVSA-T (human breast carcinoma); test: Anti-proliferative activity, Alamar Blue assay, EVSA-T; format: cell-based; conditions: Homo sapiens, EVSA-T; for EC50: read-out: EVSA-T prolif (EC50)
[2] = tested on: MDA-MB-231 (human breast carcinoma); test: Anti-proliferative activity, Alamar Blue assay, MDA-MB-231; format: cell-based; conditions: MDA-MB-231, 72 h, read-out: EC50, inhibition of cell growth
[3] = target: BIR3 domain of human XIAP (residues 252-350) (Homo sapiens (Human), UniProt P98170); test: XIAP in vitro competitive displacement binding assay (fluorescence polarization); conditions: for IC50: read-out: IC50 or PI Xiap: IC50; for inhibition at 0.04 µM: 1 h, read-out: IC50 or PI Xiap: PI
[4] = target: BIR3 domain of human cIAP-1 (residues 267-363) (Homo sapiens (Human), UniProt Q13490); test: cIAP-1 in vitro competitive displacement binding assay (fluorescence polarization; Probe A AVPIK(5&6FAM)-amide or Probe B AbuRPFK(5&6FAM)-amide); conditions: for inhibition at […] / inhibition at 0.01 µM: 3 h, read-out: IC50 or PI cIAP1: PI
[5] = read-out: IC50 or PI cIAP1: IC50

IC50 [3]	SMILES	EC50 ([1]; 72 h)	inhibition at 0.04 µM [3]	EC50 ([1]; 72 hours, Alamar Blue)	inhibition at […] [4]	other results
–	COC[C@H]1CN[C@H](C)CN1CC(=O)N1CC(C)(C)c2cc(F)c(S(=O)(=O)c3ccc(OC)cc3)cc21 [Example 60, 1-[5-Fluoro-6-(4-methoxy-benzenesulfonyl)-3,3-dimethyl-2,3-dihydro-indol-1-yl]-2-((2R,5R)-2-methoxymethyl-5-methyl-piperazin-1-yl)-ethanone dihydrochloride salt]	0.69 µM	–	–	–	EC50 [2]: < 10 µM
–	COC[C@H]1CN[C@H](C)CN1CC(=O)N1CC(C)(C)c2cnc(Cc3ccccc3)cc21 [Example 63, 1-(6-Benzyl-3,3-dimethyl-2,3-dihydro-pyrrolo[3,2-c]pyridin-1-yl)-2-((2R,5R)-2-methoxy-methyl-5-methyl-piperazin-1-yl)-ethanone hydrochloride salt]	0.1 µM	–	–	–	EC50 [2]: < 10 µM
–	CCCC(F)(F)c1cnc2c(c1)N(C(=O)CN1C[C@@H](C)NC[C@@H]1CN1CCOC[C@H]1CC)CC2(C)C [Example 248, 1-[6-(1,1-Difluorobutyl)-3,3-dimethyl-1H,2H,3H-pyrrolo[3,2-b]pyridin-1-yl]-2-[(2R,5R)-2-{[(3R)-3-ethylmorpholin-4-yl]methyl]-5-methylpiperazin-1-yl]ethan-1-one dihydrochloride]	–	69%	0.01 µM	91%	–
–	C[C@@H]1CN(CC(=O)N2CC(C)(C)c3ncc(C(F)(F)CC4CC4)cc32)[C@@H](CN2CCCC2=O)CN1 [Example 230, 1-{[(2R,5R)-1-{2-[6-(2-Cyclopropyl-1,1-difluoroethyl)-3,3-dimethyl-1H,2H,3H-pyrrolo[3,2-b]pyridin-1-yl]-2-oxoethyl}-5-methylpiperazin-2-yl]methyl}pyrrolidin-2-one formate]	–	53%	0.11 µM	60%	–
–	C[C@@H]1CN(CC(=O)N2CC(C)(C)c3cnc(Cc4ccccc4)cc32)[C@@H](CN2CCCC2=O)CN1 [Example 172, 1-{[(2R,5R)-1-(2-{6-Benzyl-3,3-dimethyl-1H,2H,3H-pyrrolo[3,2-c]pyridin-1-yl}-2-oxoethyl)-5-methylpiperazin-2-yl]methyl}pyrrolidin-2-one dihydrochloride]	–	58%	0.056 µM	78%	–
0.047 µM	C[C@@H]1CN(CC(=O)N2CC(C)(C)c3cnc(Cc4ccccc4F)cc32)[C@@H](CN2CCOCC2)CN1 [Example 245, 1-{6-[(2-Fluorophenyl)methyl]-3,3-dimethyl-1H,2H,3H-pyrrolo[3,2-c]pyridin-1-yl}-2-[(2R,5R)-5-methyl-2-(morpholin-4-ylmethyl)piperazin-1-yl]ethan-1-one hydrochloride]	–	–	0.0042 µM	–	inhibition at […] ([4]; Probe B, @ 0.012 μM): 86%
0.072 µM	C[C@@H]1CN(CC(=O)N2CC(C)(C)c3cnc(Cc4ccccc4)cc32)[C@@H](C(=O)N2CCOCC2)CN1 [Example 101, 1-{6-Benzyl-3,3-dimethyl-1H,2H,3H-pyrrolo[3,2-c]pyridin-1-yl}-2-[(2R,5R)-5-methyl-2-[(morpholin-4-yl)carbonyl]piperazin-1-yl]ethan-1-one, hydrochloride salt]	–	–	0.14 µM	–	inhibition at 0.01 µM ([4]; Probe B): 62%
0.1 µM	C[C@@H]1CN(CC(=O)N2CC(C)(c3ccccc3)c3ccc(C#N)cc32)[C@@H](Cn2cccn2)CN1 (stereo partly drawn) [Example 143, 3-Methyl-1-{2-[(2R,5R)-5-methyl-2-(1H-pyrazol-1-ylmethyl)piperazin-1-yl]acetyl}-3-phenyl-2,3-dihydro-1H-indole-6-carbonitrile hydrochloride]	–	–	8.8 µM	–	IC50 ([4]; Probe B AbuRPFK(5&6FAM)-amide, read-out: IC50 or PI cIAP1: IC50): 0.2 µM
0.17 µM	COC[C@H]1CN[C@H](C)CN1CC(=O)N1CC(C)(C)c2cnc(Cc3ccc(F)cc3)cc21 [Example 88, 1-{6-[(4-Fluoro-phenyl)methyl]-3,3-dimethyl-1H,2H,3H-pyrrolo[3,2-c]pyridin-1-yl}-2-[(2R,5R)-2-(methoxy-methyl)-5-methyl-piperazin-1-yl]ethan-1-one, hydrochloride salt]	–	–	0.04 µM	–	inhibition at 0.01 µM ([4]; Probe B): 84%
–	C[C@@H]1CN(CC(=O)N2CC(C)(C)c3cnc(C(F)(F)c4ccccc4)cc32)[C@@H](CN2CCOCC2)CN1 [Example 224, 1-{6-[Difluoro(phenyl)methyl]-3,3-dimethyl-1H,2H,3H-pyrrolo[3,2-c]pyridin-1-yl}-2-[(2R,5R)-5-methyl-2-(morpholin-4-ylmethyl)piperazin-1-yl]ethan-1-one dihydrochloride]	–	77%	0.019 µM	83%	–
0.058 µM	C[C@@H]1CN(CC(=O)N2CC(C)(C)c3cnc(Cc4ccc(F)cc4F)cc32)[C@@H](CN2CCCCC2=O)CN1 [Example 192, 1-{[(2R,5R)-1-(2-{6-[(2,4-Difluorophenyl)methyl]-3,3-dimethyl-1H,2H,3H-pyrrolo[3,2-c]pyridin-1-yl}-2-oxoethyl)-5-methylpiperazin-2-yl]methyl}piperidin-2-one hydrochloride]	–	–	0.0088 µM	–	inhibition at […] ([4]; Probe B, @ 0.012 μM): 95%
–	C[C@@H]1CN(CC(=O)N2CC(C)(C)c3cnc(C(F)(F)c4ccccc4)cc32)[C@@H](CN2CCCC2=O)CN1 [Example 173, 1-{[(2R,5R)-1-(2-{6-[Difluoro(phenyl)methyl]-3,3-dimethyl-1H,2H,3H-pyrrolo[3,2-c]pyridin-1-yl}-2-oxoethyl)-5-methylpiperazin-2-yl]methyl}pyrrolidin-2-one dihydrochloride]	–	73%	0.036 µM	80%	–

SMILES	IC50 [3]	EC50 ([1]; 72 h)	inhibition at 0.04 µM [3]	EC50 ([1]; 72 hours, Alamar Blue)	inhibition at […] [4]	other results
C[C@@H]1CN(CC(=O)N2CC(C)(C)c3cc(F)c(S(=O)(=O)N4CCCC4)cc32)CCN1 [Example 49, 1-[5-Fluoro-3,3-dimethyl-6-(pyrrolidine-1-sulfonyl)-2,3-dihydro-indol-1-yl]-2-((R)-3-methyl-piperazin-1-yl)-ethanone dihydrochloride salt]	0.64 µM	–	–	–	–	inhibition at 10 µM ([1]; read-out: EVSA-T prolif: % inhibition): 2%; IC50 [4, 5]: 4.1 µM
C[C@@H]1CN(CC(=O)N2CC(C)(C)c3ncc(C(C)(F)F)cc32)[C@@H](CN2CCN(C)C(=O)C2)CN1 [Example 228, 4-{[(2R,5R)-1-{2-[6-(1,1-Difluoroethyl)-3,3-dimethyl-1H,2H,3H-pyrrolo[3,2-b]pyridin-1-yl]-2-oxoethyl}-5-methylpiperazin-2-yl]methyl}-1-methylpiperazin-2-one dihydrochloride]	0.099 µM	0.68 µM	–	–	–	IC50 [4]: < 1 µM; IC50 [4, 5]: 0.024 µM
C[C@@H]1CN(CC(=O)N2CC(C)(C)c3ncc(Cc4ccc(F)cc4)cc32)[C@@H](CN2C[C@@H](C)O[C@@H](C)C2)CN1 [Example 243, 2-[(2R,5R)-2-{[(2R,6S)-2,6-Dimethylmorpholin-4-yl]methyl}-5-methylpiperazin-1-yl]-1-{6-[(4-fluorophenyl)methyl]-3,3-dimethyl-1H,2H,3H-pyrrolo[3,2-b]pyridin-1-yl}ethan-1-one dihydrochloride]	0.047 µM	0.025 µM	–	–	100%	–
C[C@@H]1CN(CC(=O)N2CC(C)(C)c3cnc(Cc4ccc(F)cc4F)cc32)[C@@H](Cn2ncccc2=O)CN1 [Example 194, 2-{[(2R,5R)-1-(2-{6-[(2,4-Difluorophenyl)methyl]-3,3-dimethyl-1H,2H,3H-pyrrolo[3,2-c]pyridin-1-yl}-2-oxoethyl)-5-methylpiperazin-2-yl]methyl}-2,3-dihydropyridazin-3-one dihydrochloride]	0.055 µM	0.0098 µM	–	–	99%	–
